Measured values taken from patent publication US12195551B2, “Combination of an ErbB-2/ErbB-3 bispecific antibody with endocrine therapy for breast cancer” (Merus N.V., priority 2017, dated 2025).
Values joined by “and” are separate entries in the source; they are usually repeats but may differ in a detail not shown here. Equal values may be shown once. Read-outs that look alike come from different tables or passages of the source.

Tests used:
HBCx-34 PDX model = conditions: model characterisation; cited from earlier work
[1] = tested on: human HBCx-34 breast tumor xenograft; assay: Antitumor efficacy in HBCx-34 patient-derived breast cancer xenograft (study XTS-1521); type: in vivo, mouse
Description: Antitumor efficacy of an HER2/HER3 targeting antibody was determined in the context of a combination treatment together with an aromatase inhibitor. […] It was used as single agent and in combination with the aromatase inhibitor Letrozole. The hormone-dependent HBCx-34 patient-derived breast cancer xenograft model established in immunodeficient mice was used as an example of a breast cancer.
The HBCx-34 PDX model was derived from a treatment-naïve primary breast infiltrating ductal carcinoma.
Tumor-bearing mice received estrogen diluted in drinking water (β-oestradiol, 8.5 mg/l), from the date of tumor implant to the date of inclusion. During the treatment period, mice were not supplemented with estrogen.
Tumors of the same passage were transplanted subcutaneously onto 6-24 mice (donor mice, passage (n−1)). When these tumors reached 1000 to 2000 mm^3, donor mice were sacrificed by cervical dislocation, tumors were aseptically excised and dissected. After removing necrotic areas, tumors were cut into fragments measuring approximately 20 mm^3 and transferred in culture medium before grafting.
95 mice were anaesthetized with 100 mg/kg ketamine hydrochloride (batch 5D92, Exp: 2017/03, Virbac) and 10 mg/kg xylazine (batch KP0AX9X, Exp: 2017/08, Bayer), and then skin was aseptized with a chlorhexidine solution, incised at the level of the interscapular region, and a 20 mm^3 tumor fragment was placed in the subcutaneous tissue. Skin was closed with clips. All mice from the same experiment were implanted on the same day.
Treatments were randomly attributed to boxes housing up to 5 mice and were initiated 36 days post implantation of the tumor (42% inclusion rate). The study was terminated following 57 days after the start of treatment.
Tumor volume was evaluated by measuring tumor diameters, with a calliper, biweekly during the experimental period.
The formula TV (mm3)=[length (mm)×width (mm)2]/2 was used, where the length and the width are the longest and the shortest diameters of the tumor, respectively.
A total of 4 groups were used as summarized in the scheme below. Each group initially included 10 mice.
All treatment doses were body weight adjusted at each injection.

HBCx-34 tumors = assay: In vivo growth characteristics of the HBCx-34 PDX model (FIG. 4); set-up: species or system mouse; conditions: animals that did not receive estrogens, vs vehicle
Description: FIG. 4. In vivo growth characteristics of the HBCx-34 PDX model. A, IHC characteristics of HBCx-34 PDX tumors. B, Athymic nude mice were engrafted s.c. with HBCx-34 tumors. […] T-tests were performed to compare tumor volumes from estrogen-independent tumors treated with vehicle or Letrozole (*, p<0.05, **, p<0.01, ***, p<0.001).

[2] = MCLA-128 25 mg/kg IP, Letrozole […] PO qdx57
[3] = MCLA-128 25 mg/kg i.p., Letrozole […] p.o. qdx57, day of maximum as in text

## N#Cc1ccc(C(c2ccc(C#N)cc2)n2cncn2)cc1 [Letrozole]
HBCx-34 PDX model
  response of the HBCx-34 PDX model: low responder
[1]; DAY 25, vs vehicle group
  Mann-Whitney test on tumor volume: * (* = P < 0.05)
[1]; DAY 28, vs vehicle group
  Mann-Whitney test on tumor volume: * (* = P < 0.05)
[1]; DAY 32, vs MCLA-128 25
  Dunn's Multiple Comparison Test on tumor volume: * (* = P < 0.05)
[1]; DAY 32, vs vehicle group
  Mann-Whitney test on tumor volume: ** (** = P < 0.01)
[1]; DAY 35, vs MCLA-128 25
  Dunn's Multiple Comparison Test on tumor volume: ** (** = P < 0.01)
[1]; DAY 35, vs Vehicle MCLA-128
  Dunn's Multiple Comparison Test on tumor volume: * (* = P < 0.05)
[1]; DAY 35, vs vehicle group
  Mann-Whitney test on tumor volume: *** (*** = P < 0.001)
[1]; DAY 39, vs MCLA-128 25
  Dunn's Multiple Comparison Test on tumor volume: ** (** = P < 0.01)
[1]; DAY 39, vs Vehicle MCLA-128
  Dunn's Multiple Comparison Test on tumor volume: * (* = P < 0.05)
[1]; DAY 39, vs vehicle group
  Mann-Whitney test on tumor volume: *** (*** = P < 0.001)
[1]; DAY 42, vs MCLA-128 25
  Dunn's Multiple Comparison Test on tumor volume: ** (** = P < 0.01)
[1]; DAY 42, vs Vehicle MCLA-128
  Dunn's Multiple Comparison Test on tumor volume: * (* = P < 0.05)
[1]; DAY 42, vs vehicle group
  Mann-Whitney test on tumor volume: *** (*** = P < 0.001)
[1]; DAY 46, vs MCLA-128 25
  Dunn's Multiple Comparison Test on tumor volume: ** (** = P < 0.01)
[1]; DAY 46, vs Vehicle MCLA-128
  Dunn's Multiple Comparison Test on tumor volume: * (* = P < 0.05)
[1]; DAY 46, vs vehicle group
  Mann-Whitney test on tumor volume: *** (*** = P < 0.001)
[1]; DAY 49, vs MCLA-128 25
  Dunn's Multiple Comparison Test on tumor volume: ** (** = P < 0.01)
[1]; DAY 49, vs Vehicle MCLA-128
  Dunn's Multiple Comparison Test on tumor volume: * (* = P < 0.05)
[1]; DAY 49, vs vehicle group
  Mann-Whitney test on tumor volume: *** (*** = P < 0.001)
[1]; DAY 53, vs MCLA-128 25
  Dunn's Multiple Comparison Test on tumor volume: ** (** = P < 0.01)
[1]; DAY 53, vs Vehicle MCLA-128
  Dunn's Multiple Comparison Test on tumor volume: * (* = P < 0.05)
[1]; DAY 53, vs vehicle group
  Mann-Whitney test on tumor volume: *** (*** = P < 0.001)
[1]; DAY 56, vs MCLA-128 25
  Dunn's Multiple Comparison Test on tumor volume: ** (** = P < 0.01)
[1]; DAY 56, vs Vehicle MCLA-128
  Dunn's Multiple Comparison Test on tumor volume: * (* = P < 0.05)
[1]; DAY 56, vs vehicle group
  Mann-Whitney test on tumor volume: *** (*** = P < 0.001)
[1]; [2]
  Best T/C %: 18.68%
  Best TGE %: 145.70%
  T/C % (at control group day end): 18.68%
  TGI % (at control group day end): 121.97%
  median TGD × 3 (In days): >56 days
[1]; MCLA-128 25 mg/kg i.p., Letrozole […] p.o. qdx57
  tumor growth inhibition (in words): statistically significant tumor growth inhibition
[1]; STAT column, vs vehicle group
  Mann-Whitney test on tumor volume: STAT: *** (*** = P < 0.001)
[1]; number of complete regressions recorded up to Group Day End
  TFS (Tumor Free Survivor): 1
[1]; number of mice with 0 to 14 mm^3 tumor size during at least 3 consecutive measurements
  CR (complete regression): 1/10 and 1
[1]; number of mice with constant tumor size during at least 6 consecutive measurements
  TS (Tumor Stabilization): 1
[1]; number of mice with tumor size lower than initial during at least 6 consecutive measurements
  PR (partial regression): 7/10 and 7
[1]; tumor growth inhibition
  p compared to the group control by Dunn's test: < 0.05
  p compared with the vehicle group, Mann Whitney test: < 0.001
HBCx-34 tumors
  formation of estrogen-independent tumors: significantly reduced the formation of estrogen-independent tumors
DAY 25, vs MCLA-128 25
  Dunn's Multiple Comparison Test on relative body weight: * (* = P < 0.05)
DAY 28, vs Vehicle MCLA-128
  Dunn's Multiple Comparison Test on relative body weight: * (* = P < 0.05)
DAY 32, vs MCLA-128 25
  Dunn's Multiple Comparison Test on relative body weight: ** (** = P < 0.01)
DAY 32, vs Vehicle MCLA-128
  Dunn's Multiple Comparison Test on relative body weight: ** (** = P < 0.01)
DAY 35, vs MCLA-128 25
  Dunn's Multiple Comparison Test on relative body weight: * (* = P < 0.05)
DAY 35, vs Vehicle MCLA-128
  Dunn's Multiple Comparison Test on relative body weight: ** (** = P < 0.01)
DAY 39, vs MCLA-128 25
  Dunn's Multiple Comparison Test on relative body weight: ** (** = P < 0.01)
DAY 39, vs Vehicle MCLA-128
  Dunn's Multiple Comparison Test on relative body weight: ** (** = P < 0.01)
DAY 42, vs Vehicle MCLA-128
  Dunn's Multiple Comparison Test on relative body weight: ** (** = P < 0.01)
DAY 46, vs MCLA-128 25
  Dunn's Multiple Comparison Test on relative body weight: ** (** = P < 0.01)
DAY 46, vs Vehicle MCLA-128
  Dunn's Multiple Comparison Test on relative body weight: ** (** = P < 0.01)
DAY 49, vs MCLA-128 25
  Dunn's Multiple Comparison Test on relative body weight: ** (** = P < 0.01)
DAY 49, vs Vehicle MCLA-128
  Dunn's Multiple Comparison Test on relative body weight: ** (** = P < 0.01)
DAY 53, vs MCLA-128 25
  Dunn's Multiple Comparison Test on relative body weight: ** (** = P < 0.01)
DAY 53, vs Vehicle MCLA-128
  Dunn's Multiple Comparison Test on relative body weight: ** (** = P < 0.01)
DAY 56, vs MCLA-128 25
  Dunn's Multiple Comparison Test on relative body weight: ** (** = P < 0.01)
DAY 56, vs Vehicle MCLA-128
  Dunn's Multiple Comparison Test on relative body weight: ** (** = P < 0.01)
[3]
  maximum individual body weight loss: 4.1%
  maximum mean body weight loss: no mean body weight loss
